Experimental data reported in patent US20200315998A1, “COMPOSITION FOR IMPROVING INTESTINAL BARRIER FUNCTION” (SUNTORY HOLDINGS LIMITED, priority 2017, published 2020).

System: Caco-2 cells
Assay: Evaluation of intestinal barrier function improvement: TEER reduction suppression in Caco-2 monolayer with inflammatory cytokines (TNFα, IL-1β, IFNγ)
Type: cell-based, human
Settings: for Synergistic effect (M.V./T.V.) / TEER reduction suppression ratio (%) +gallic acid (actual measurement value) (M.V.) / Synergistic effect (M.V./T/V/): combined use of phenolic compound and gallic acid; for Relative value of TEER reduction suppression ratio: sample alone 1 μM; for TEER reduction suppression ratio: sample alone 100 μM, TNFα 40 ng/mL, IL-1β 20 ng/mL, IFNγ 10 ng/mL, 48 hours; for TEER reduction suppression ratio (%) +gallic acid (theoretical value) (T.V.): sum of ratios of phenolic compound alone and gallic acid alone; for Synergistic effect (relative value of actual measurement value / relative value of theoretical value): combined use of the phenolic compound with gallic acid, 1 μM each (Table 1)
Source text: The intestinal barrier function improvement effect is indicated by, for example, increase in the electrical resistance value (transepithelial electric resistance: TEER) of the intestinal epithelial cells or suppression of the decrease in the TEER. A substance increasing the TEER or suppressing the decrease thereof has the action of normalizing or strengthening the tight junction in the intestinal epithelial cells. The intestinal barrier function improvement effect is also indicated by decrease in the amount of a substance permeating from the intestinal side of the intestinal epithelial cells to the inside of the body. The person skilled in the art can select a specific method of evaluating the intestinal barrier function improvement effect depending on the purpose. For exarple, as shown in Examples to be described later, a method for measuring TEER using an intestinal permeation model using human intestinal epithelial cells (Caco-2 cells) can be used. Specifically, inflammatory cytokine (TNFα, IL-1β, IFNγ and the like) is added into Caco-2 monolayer cultured cells to produce a state where the intestinal barrier function can be collapsed in human. If the addition of a test substance suppresses the decrease in the TEER as compared with the case where the substance is not added, the test substance can be evaluated to have the intestinal barrier function improvement effect.
Caco-2 cells were cultured for three weeks at 37° C. in Transwell (manufactured by Millicell Corporation) using DMEM (Dulbecco's modified Eagle's medium). A medium was removed from a plate of cultured Caco-2 cells, and the well was washed 3 times with serum-free DMEM. The well was filled with the medium. Then, the transepithelial electrical resistance (TEER) of Caco-2 monolayer cells was measured by Millicell-ERS (manufactured by Millipore Corporation). Cells (TEER≥1000 Ω·cm^2) determined that a sufficient tight junction was formed were selected, and used for the next screening. Then, to test solutions (media) on both apical and basolateral membrane sides, a sample, TNFα (40 ng/mL), IL-1β (20 ng/mL), and IFNγ (10 ng/mL) were added, followed by cultivating for 48 hours. The sample was dissolved in dimethyl sulfoxide (DMSO), and the solution was then added to the test solutions. In this case, a well to which inflammatory cytokine (TNFα, IL-1β, and IFNγ) and the sample were not added was provided as normal. A well to which inflammatory cytokine was added and the sample was not added was provided as control. After the cultivation, TEER was measured again, to evaluate whether the sample suppressed the reduction (decrease) of TEER due to the inflammatory cytokine.
The TEER reduction suppression ratio (%) due to the sample was determined according to the following formula from the TEER values of the well to which the sample was added, normal, and control.
(Calculating formula of TEER reduction suppression ratio) TEER reduction suppression ratio (%)=100×((TEER of well to which sample is added)−(TEER of control))/((TEER of normal)−(TEER of control))
In this evaluation system, as the TEER reduction suppression ratio (%) is higher, an intestinal barrier function improvement effect is higher.

[1] = Evaluation 1, catechin (CA) set to 1.0
[2] = Evaluation 4, epigallocatechin (EGC) set to 1.0

| Compound | Synergistic effect (M.V./T.V.) (each 1 μM) | TEER reduction suppression ratio (%) +gallic acid (actual measurement value) (M.V.) (each 1 μM) [%] | Synergistic effect (M.V./T/V/) (each 10 μM) | TEER reduction suppression ratio (%) +gallic acid (actual measurement value) (M.V.) (each 10 μM) [%] | also measured |
| --- | --- | --- | --- | --- | --- |
| O=C(O[C@@H]1COC(=O)c2cc(O)c(O)c(O)c2-c2c(cc(O)c(O)c2O)C(=O)O[C@H]1[C@@H]1OC(=O)c2cc(O)c(O)c(O)c2-c2c(O)c(O)c(O)c3c2C(=O)O[C@H]1[C@@H]3O)c1cc(O)c(O)c(O)c1 [Casuarinin, casuarinin] | 1.4 | 81 | – | – | – |
| O=C(OC[C@H]1O[C@@H](OC(=O)c2cc(O)c(O)c(O)c2)[C@H](OC(=O)c2cc(O)c(O)c(O)c2)[C@@H](OC(=O)c2cc(O)c(O)c(O)c2)[C@@H]1OC(=O)c1cc(O)c(O)c(O)c1)c1cc(O)c(O)c(O)c1 [1,2,3,4,6-penta-O-galloyl-β-D-glucose] | 1.4 | 91 | – | – | – |
| O=c1c(-c2ccc(O)cc2)coc2cc(O)cc(O)c12 [Genistein, genistein] | – | – | 1.6 | 58 | – |
| O=C(O)c1cc(O)c(O)c(O)c1 [Gallic acid (GA), 3,4,5-trihydroxybenzoic acid] | – | – | – | – | TEER reduction suppression ratio of gallic acid relative to quercetin at the same concentration (100 μM each, gallic acid vs quercetin): about 1.15 times; Relative value of TEER reduction suppression ratio [1]: 0.4; Relative value of TEER reduction suppression ratio (Evaluation 2, epicatechin (EC) set to 1.0): 0.5; Relative value of TEER reduction suppression ratio (Evaluation 3, gallocatechin (GC) set to 1.0): 0.3; Relative value of TEER reduction suppression ratio [2]: 0.2; Suppression of the reduction of TEER due to inflammatory cytokine (gallic acid alone, 1 μM and 10 μM): suppressed the reduction of TEER; TEER reduction suppression ratio: 86.5% |
| O=c1c(O)c(-c2cc(O)c(O)c(O)c2)oc2cc(O)cc(O)c12 [Myricetin, myricetin] | – | – | 1.2 | 75 | – |
| O=c1c(O)c(-c2ccc(O)c(O)c2)oc2cc(O)cc(O)c12 [Quercetin, quercetin, reference compound] | – | – | 1.7 | 61 | TEER reduction suppression ratio: 75.0% |
| O=C(/C=C/c1ccc(O)cc1)c1c(O)cc(O)cc1O [Naringenin chalcone, 4,2′,4′,6′-tetra-hydroxy chalcone] | – | – | 1.7 | 51 | – |
| O=C1OCC2O[C@@H](O)C3OC(=O)c4cc(O)c(O)c(O)c4-c4c(cc(O)c(O)c4O)C(=O)OC3[C@@H]2OC(=O)c2cc(O)c(O)c(O)c2-c2c1cc(O)c(O)c2O (stereo partly drawn) [Pedunculagin, pedunculagin] | 1.7 | 90 | – | – | – |
| O=C1c2c(O)cc(O)cc2O[C@H](c2ccc(O)c(O)c2)[C@H]1O [Taxifolin, taxifolin] | – | – | 2.0 | 59 | – |
| Oc1cc(O)c2c(c1)O[C@H](c1ccc(O)c(O)c1)[C@@H](O)[C@@H]2c1c(O)cc(O)c2c1O[C@H](c1ccc(O)c(O)c1)[C@@H](O)C2 [Procyanidin B3, procyanidin B3] | – | – | 1.9 | 77 | TEER reduction suppression ratio (%) +gallic acid (theoretical value) (T.V.) (10 μM each): 53% |
| O=C(O[C@@H]1O[C@@H]2COC(=O)c3cc(O)c(O)c(O)c3-c3c(cc(O)c(O)c3O)C(=O)O[C@H]([C@H]1O)[C@@H]2O)c1cc(O)c(O)c(O)c1 [Corilagin, corilagin] | 3.4 | 76 | – | – | – |
| O=C(O)c1cc(O)c(O)c(O)c1Oc1cc2c(c(O)c1O)-c1c(cc(O)c(O)c1O)C(=O)O[C@@H]1C(COC2=O)O[C@@H](O)C2OC(=O)c3cc(O)c(O)c(O)c3-c3c(cc(O)c(O)c3O)C(=O)OC21 (stereo partly drawn) [Praecoxin A, praecoxin A] | 1.4 | 104 | – | – | – |
| Oc1cc(O)cc(/C=C/c2ccc(O)c(O)c2)c1 [Piceatannol, piceatannol] | – | – | 1.1 | 53 | – |
| O=C(OC[C@H]1O[C@@H](O)[C@H](OC(=O)c2cc(O)c(O)c(O)c2)[C@@H](OC(=O)c2cc(O)c(O)c(O)c2)[C@@H]1OC(=O)c1cc(O)c(O)c(O)c1)c1cc(O)c(O)c(O)c1 [2,3,4,6-tetra-O-galloyl-β-D-glucose] | 2.0 | 90 | – | – | – |
| O=c1c(-c2ccc(O)cc2)coc2cc(O)ccc12 [Daidzein, daidzein] | – | – | 1.8 | 50 | – |
| stenophyllanin B | 1.3 | 82 | – | – | TEER reduction suppression ratio (%) +gallic acid (theoretical value) (T.V.) (1 μM each): 66% |
| Oc1cc(O)c2c(c1)O[C@H](c1ccc(O)c(O)c1)[C@H](O)[C@H]2c1c(O)cc(O)c2c1O[C@H](c1ccc(O)c(O)c1)[C@H](O)C2 [Procyanidin B2, procyanidin B2] | – | – | 1.5 | 76 | TEER reduction suppression ratio (%) +gallic acid (theoretical value) (T.V.) (10 μM each): 51% |
| O=C(O)/C=C/c1ccccc1O [2-Coumaric acid, 2-coumaric acid] | – | – | 3.0 | 46 | – |
| catechin [Catechin (CA)] | – | – | – | – | Relative value of TEER reduction suppression ratio [1]: 1.0; Synergistic effect (relative value of actual measurement value / relative value of theoretical value): 2.0 |
| O=c1c(O[C@@H]2O[C@H](CO)[C@@H](O)[C@H](O)[C@H]2O)c(-c2ccc(O)c(O)c2)oc2cc(O)cc(O)c12 [Quercetin-3-O-glucopyranoside, quercetin-3-O-glucopyranoside] | – | – | 1.5 | 47 | – |
| Oc1cc(O)c2c(c1)O[C@H](c1cc(O)c(O)c(O)c1)[C@H](O)C2 [Epigallocatechin (EGC), epigallocatechin] | – | – | – | – | Relative value of TEER reduction suppression ratio [2]: 1.0; Synergistic effect (relative value of actual measurement value / relative value of theoretical value): 1.5 |
| C[C@@H]1O[C@@H](OC[C@H]2O[C@@H](Oc3c(-c4ccc(O)c(O)c4)oc4cc(O)cc(O)c4c3=O)[C@H](O)[C@@H](O)[C@@H]2O)[C@H](O)[C@H](O)[C@H]1O [Rutin, rutin] | – | – | 2.9 | 45 | – |
| O=C(OC[C@H]1O[C@@H](OC(=O)c2cc(O)c(O)c(O)c2)[C@H](OC(=O)c2cc(O)c(O)c(O)c2)[C@@H](O)[C@@H]1OC(=O)c1cc(O)c(O)c(O)c1)c1cc(O)c(O)c(O)c1 [1,2,4,6-tetra-O-galloyl-β-D-glucose] | 1.4 | 56 | – | – | – |
| O=c1cc(-c2ccc(O)cc2)oc2cc(O)cc(O)c12 [Apigenin, apigenin] | – | – | 4.1 | 51 | – |
| O=C(OC1C(OC(=O)c2cc(O)c(O)c(O)c2)[C@H](O)OC2COC(=O)c3cc(O)c(O)c(O)c3-c3c(cc(O)c(O)c3O)C(=O)O[C@H]21)c1cc(O)c(O)c(O)c1 (stereo partly drawn) [Tellimagrandin I, tellimagrandin I] | 1.6 | 92 | – | – | – |
| O=C(O[C@@H]1Cc2c(O)cc(O)cc2O[C@@H]1c1cc(O)c(O)c(O)c1)c1cc(O)c(O)c(O)c1 [Epigallocatechin gallate, epigallocatechin gallate] | – | – | 1.5 | 114 | TEER reduction suppression ratio (%) +gallic acid (theoretical value) (T.V.) (10 μM each): 76% |
| O=C(O)/C=C/c1cccc(O)c1 [3-Coumaric acid, 3-coumaric acid] | – | – | 1.2 | 48 | – |
| O=C1O[C@@H]2C3COC(=O)c4cc(O)c(O)c(O)c4-c4c(cc(O)c(O)c4O)C(=O)O[C@H]2C(OC(=O)c2cc(O)c(O)c4c2C2C1=CC(=O)C(O)(O)[C@@]2(O)O4)[C@H](OC(=O)c1cc(O)c(O)c(O)c1)O3 (stereo partly drawn) [Geraniin, geraniin] | 2.4 | 119 | – | – | – |
